Measured values taken from patent US20140107344A1, “ZINC SALT OF ISOTHIAZOLONE COMPOUND, METHOD FOR REDUCING IRRITATION CAUSED BY ISOTHIAZOLONE COMPOUND, ANTIBACTERIAL AND ANTIFUNGAL METHOD USING ZINC SALT OF ISOTHIAZOLONE COMPOUND, AND ANTIBACTERIAL AND ANTIFUNGAL COMPOSITION” (Nippon Soda Co., Ltd., priority 2007, published 2014).
In brackets after ≈: the same amount, converted by molar mass. Several values for one entry are separate records, joined by “and”; a condition that tells them apart may be missing. Equal entries are not always repeated.

Columns and labels:
[1] = system: ear auricle of a mouse; assay: Local lymph node proliferation assay using a mouse (ear auricle irritation); assay type: in vivo; conditions: for Thickness of ear auricle: 50 μL/mouse per day on both ears, once a day for 3 days, day of measurement not given; for Extent of hyperplasia: ear auricle thickness on day 3 minus day 1, 0.1 mm or greater = irritating; for General symptoms: observation during administration period
Excerpt: (Local Lymph Node Proliferation Assay using a Mouse)
(1) Administration Solution
(A) An administration solution A prepared by suspending the BIT/Zn salt obtained in Example 1 in a mixed solvent, which was composed of N,N-dimethylacetamide, acetone and ethanol and which contained the respective component at a ratio of 4:3:3 (volume ratio) (hereafter, frequently referred to as “DAE”), so as to achieve a 5% by weight solution.
(B) An administration solution B prepared by dissolving BIT in DAE so as to achieve a 5% by weight solution.
(2) Application of an Administration Solution
12.5 μL of the administration solutions A and B were respectively applied inside and outside the ear auricle of a mouse using a micropipette. This process was carried out for both ears, once a day, and for 3 days. The applied dose was 50 μL/mouse for one day.
(3) Measurement of Body Weight
Regarding the mouse provided for the experiment, the body weight thereof was measured just before the application on day 0 of the experiment, on day 3 of the experiment, and just before the dissection thereof (on day 6).
(4) Measurement of Ear Auricle Thickness
Regarding the mouse provided for the experiment, the ear auricle thickness thereof was measured on day 1 and on day 3 of the experiment, using a digital thickness gage manufactured by Teclock Corporation.
The extent of hyperplasia was calculated by the formula: (ear auricle thickness on day 3 of the experiment)—(ear auricle thickness on day 1 of the experiment). When the extent of hyperplasia was 0.1 mm or greater, it was evaluated as “irritating”.
(5) Observation of Symptoms
During the administration period, the observations were made once just before the administration and once 3 hours after the administration. During other periods, the observations were made once a day. The presence and absence of erythema in the ear auricle was observed just before the administrations on day 1, day 2 and on day 3 of the experiment, and the observations made were evaluated in scores as 0 to 16 grades.
Method for Evaluating Mouse Eears
Grades 0-9: Evaluated as possibly not irritating to humans.
Grades 10-15: Evaluated as possibly slightly irritating to humans.
Grades greater than grade 15: Evaluated as possibly irritating to humans.

[2] = Thermal stability test; assay type: physicochemical
Procedure: A test was carried out on the thermal stability of the BIT/Zn salt obtained in Example 1 and of BIT. As a result, BIT broke down at 300° C. or less, whereas the BIT/Zn salt remained stable even at 400° C.

[3] = system: Aspergillus niger NBRC6342; assay: Test for determining minimum concentration for inhibition of growth (agar plate dilution method), Aspergillus niger; assay type: cell-based; conditions: for MIC value (mM/L) Aspergillus niger NBRC6342: MIC on a molar basis, based on the molecular weights; for MIC value: concentration of active ingredient, potato dextrose agar, strain not given in Table 2
Excerpt: (§1) (Test for Determining Minimum Concentration for Inhibition of Growth)
(§2) For the test samples, 3 types of samples were used; i.e., the BIT/Zn salt obtained in Example 1 (in the form of a powder containing 79.7% of active ingredients), a BIT material/SC formulation (i.e., Bestcide-NS manufactured by Nippon Soda Co., Ltd. containing 33% of active ingredients), and ZnO (zinc oxide) of 99.0% or greater (manufactured by Wako Pure Chemical Industries, Ltd.). Evaluations were made by conducting an agar plate dilution method using a potato dextrose agar medium. Two fungal strains; i.e., Aspergillus niger NBRC6342 and Cladosporium cladosporioides NBRC6348, were used as microorganisms for the test, and the BIT/Zn salt, BIT and ZnO were used at a concentration of 50 to 1,000 mg/L. The results are shown in Table 2 and Table 3. It should be noted that in Table 3, the results on the analysis of minimum inhibitory concentration (MIC) based on the molecular weights (i.e., MIC values on a molar basis) are shown.

[4] = system: Cladosporium cladosporioides NBRC6348; assay: Test for determining minimum concentration for inhibition of growth (agar plate dilution method), Cladosporium cladosporioides; assay type: cell-based; conditions: MIC on a molar basis, based on the molecular weights
Excerpt: as §1, §2

[5] = system: Escherichia coli NBRC 3972; assay: Antibacterial test using a coated film (JIS Z 2801), Escherichia coli; assay type: cell-based
Procedure: (§3) Regarding the BIT/Zn salt obtained in Example 1, an antibacterial test was carried out using a coated film.
(§4) For the samples, 2 types of samples were used; i.e., A) the BIT/Zn salt (in the form of a powder containing 79.7% of active ingredients) and B) a BIT material/SC formulation (i.e., Bestcide-NS manufactured by Nippon Soda Co., Ltd. containing 15.0% of active ingredients). For the coating material, an aqueous acrylic emulsion coating material manufactured by Nippe Home Products Co., Ltd. (a preservative-free product) was used.
(§5) (1) Preparation of Test Specimen
(§6) To a blank coating material, either A) 0.019% by weight of the BIT/Zn salt or B) 0.1% by weight of the BIT technical product/SC formulation was added, and the resultant was then stirred and mixed. The coating material to which the BIT/Zn salt was added was further subjected to an ultrasonic treatment to prepare a uniform dispersion.
(§7) Subsequently, the obtained drug-added coating materials were applied onto both sides ([…] for each side) of a sterilized filter paper having a size of 50×50 mm, and the resultant was cured at room temperature for 24 hours. Test specimens where no drug was added were also prepared in the same manner.
(§8) The test was carried out in accordance with JIS Z 2801. In other words, two strains of bacteria were used for the test; i.e., Escherichia coli NBRC 3972 (Escherichia coli) and Staphylococcus aureus NBRC 12732 (Staphylococcus aureus), and their cultures preincubated in an NA medium were diluted with a 500-fold diluted NB liquid medium to prepare bacterial suspensions for inoculation. 0.4 ml of the bacterial suspension was inoculated onto each test specimen (i.e., 50×50 mm sized filter paper with a coated film thereon), and the resultant was covered with a covering film (which was already sterilized and having a size of 45×45 mm). The prepared test specimen was put in a petri dish and incubated for 24 hours in a thermo-hygrostat at a temperature of 35±1° C. and a relative humidity of 95%. Thereafter, the sample surface and the covering film were washed using 10 ml of an SCDLP medium, and the number of bacterial cells per 1 ml of the washed out liquid was calculated by counting the number of colonies using an NA medium.
A coated film obtained using a blank coating material was used as a control.
The number of bacterial cells was observed, just after the inoculation (A), and after 24 hours of incubation (B).
2) Requirements for a Valid Test
1. {(A−B)/A}×100≦90 [A: just after the inoculation, B: after 24 hours of incubation]
2. Results of the viable cell count obtained in (A) were within a range from 1.0 to 5.0×10^5 cells per petri dish.
3. Results of the viable cell count obtained in the blank (untreated) were 1.0×10^3 or more cells per petri dish. […]

[6] = system: Staphylococcus aureus NBRC 12732; assay: Antibacterial test using a coated film (JIS Z 2801), Staphylococcus aureus; assay type: cell-based
Procedure: as §3, §4, §5, §6, §7
as §8, with “The prepared test specimen was put in a petri dish and incubated for 24 hours in a thermo-hygrostat at a temperature of 35±1° C. and a relative humidity of 95%.” left out, “medium. […]” for “medium.”

[7] = coated film, 24 hours at 35±1° C., 0.019% by weight BIT/Zn salt or 0.1% by weight BIT/SC in coating material
[8] = larger values indicate stronger antibacterial activity
[9] = logarithm of viable cell count after 24 hours

| Compound | Thickness of ear auricle ([1]; 5% by weight in DAE) [mm] | Extent of hyperplasia ([1]; 5% by weight in DAE) | General symptoms ([1]; 5% by weight in DAE) | Grade for erythema ([1]; 5% by weight in DAE, score 0 to 16, 0-9 possibly not irritating, 10-15 slightly irritating, >15 irritating to humans) | Evaluation of irritation ([1]; criterion: extent of hyperplasia 0.1 mm or greater) | Thermal stability (temperature of breakdown) [2] [°C] | MIC value (mM/L) Aspergillus niger NBRC6342 [3] [mM/L] | MIC value [3] | MIC value (mM/L) Cladosporium cladosporioides NBRC6348 [4] [mM/L] | Activity level ([3]; statement covers both fungal strains) | Number of viable cells, Escherichia coli [5, 7] | Antibacterial activity, Escherichia coli [5, 8] | Logarithmic value, Escherichia coli [5, 9] | Antibacterial activity compared with BIT ([5]; statement covers both bacterial strains of Table 4) | Number of viable cells, Staphylococcus aureus [6, 7] | Antibacterial activity, Staphylococcus aureus [6, 8] | Logarithmic value, Staphylococcus aureus [6, 9] |
| --- | --- | --- | --- | --- | --- | --- | --- | --- | --- | --- | --- | --- | --- | --- | --- | --- | --- |
| O=c1[nH]sc2ccccc12 [BIT, 1,2-benzoisothiazolin-3-one] | 0.39 | 0.1 mm and 0.10 mm | no abnormality was observed | 16 | irritating | ≤ 300 | 1.3 | 200 mg/L (≈ 1320 µM) | <0.3 |  |  |  |  |  |  |  |  |
| O=c1[n-]sc2ccccc12.O=c1[n-]sc2ccccc12.[Zn+2] [BIT/Zn salt, zinc salt of BIT] | 0.34 | 0.04 mm | attachment of white powder on the ear auricle was observed 3 hours after the administration |  |  | > 400 | 2.0 | 750 mg/L | <0.1 | satisfactory to be put into practice | <10 Number of cells per petri dish | 4.9 | 1.0 | same level of antibacterial activity as that of BIT | <10 Number of cells per petri dish | 3.6 | 1.0 |
| [O]=[Zn] [ZnO, zinc oxide] |  |  |  |  |  |  | >12.3 | >1,000 mg/L | 6.10 |  |  |  |  |  |  |  |  |
